Measurements taken from PubChem BioAssay (NCI).
Where “and” joins values, the source holds several entries; their conditions need not be identical. Identical values can stand only once.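 Step 1: Grow cells in 96-well plates. Step 2: Expose to compound for 48 hours at 5 concentrations. Step 3: Interpolate endpoints linearly; if unreached, use highest concentration. GI50 is the concentration that inhibits growth by half. The concentration for full growth arrest is given as TGI.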

Tests used:
Assay in all cases: DTP human tumour cell line panel, 48 h
A498 renal = test system: A498 renal
HL-60(TB) leukemia = test system: HL-60(TB) leukemia
IGROV1 ovarian = test system: IGROV1 ovarian
K-562 leukemia = test system: K-562 leukemia
OVCAR-3 ovarian = test system: OVCAR-3 ovarian
SW-620 colon = test system: SW-620 colon
UACC-257 melanoma = test system: UACC-257 melanoma
UACC-62 melanoma = test system: UACC-62 melanoma
HOP-92 NSCLC = test system: HOP-92 NSCLC
MDA-MB-231 breast = test system: MDA-MB-231 breast

Compound	TGI (A498 renal) [µM]	TGI (HL-60(TB) leukemia) [µM]	TGI (IGROV1 ovarian)	TGI (K-562 leukemia) [µM]	TGI (OVCAR-3 ovarian) [µM]	TGI (SW-620 colon) [µM]	TGI (UACC-257 melanoma) [µM]	TGI (UACC-62 melanoma) [µM]	TGI (HOP-92 NSCLC) [µM]	GI50 (A498 renal) [µM]	GI50 (HOP-92 NSCLC) [µM]	GI50 (IGROV1 ovarian) [µM]	GI50 (K-562 leukemia) [µM]	GI50 (MDA-MB-231 breast) [µM]	TGI (MDA-MB-231 breast) [µM]	GI50 (OVCAR-3 ovarian) [µM]	GI50 (SW-620 colon) [µM]	GI50 (UACC-257 melanoma) [µM]	GI50 (UACC-62 melanoma) [µM]
O=c1cc(-c2c[nH]c3ccccc23)[nH]c2cc3c(cc12)OCO3	> 100	> 100	> 100 µM	> 100	> 100	> 100	> 100	> 100											
O=C1NC(=O)C(=Nc2cccc3c(=O)[nH][nH]c(=O)c23)C(c2nc3ccccc3s2)C1=O (configuration not stated)	> 100	> 100	> 100 µM		> 100	> 100	> 100	> 100	> 100										
Cc1ccc(NC(=O)C2C(=O)N(c3ccc(C)c(C)c3)C(=O)/C2=N\NC(N)=O)cc1C (configuration not stated)	> 100	> 100	> 100 µM	> 100	> 100	> 100	> 100	> 100	> 100										
CN=C(NC(=S)N(C)C)N(C)C	> 100	> 100	> 100 µM	> 100		> 100	> 100	> 100	> 100										
C#CC[N+](C)(CC#C)CC#C		> 100	> 100 µM	> 100	> 100	> 100	> 100	> 100	> 100										
Cc1ccc(-c2c3c(nn2-c2ccc(S(N)(=O)=O)cc2)-c2ccccc2C3)cc1	21		16 µM	53.9	30	17	40.3	24.1	30.6	6.07	13.9	3.27	16.2	14.5	37.4	15.6	4.4	21.9	11.3
COc1ccc2c(C3(c4cn(C)c5cc(OC)ccc45)C(=O)Nc4ccc(Cl)cc43)cn(C)c2c1	88.7		> 100 µM	> 100	18.4	> 100	8.56	25	37.4	4.5	3.02	2.82	3.38	1.53	5.1	4.31	4.67	2.29	3.49
O=C(CSc1ncn[nH]1)C[P+](c1ccccc1)(c1ccccc1)c1ccccc1		> 100	> 100 µM	> 100	> 100	> 100	> 100	> 100	> 100										
COc1ccc2c(c1)CC[C@@H]1[C@@H]2CC[C@]2(C)[C@@H](NC(=O)/C=C/c3ccc(O)c(O)c3)CC[C@@H]12	31.1		12 µM		22.7	25	31.8	6.19	11.6	14.3	2.49	1.98		2.6	15.2	10.6	5.55	13.4	2.12
CCOc1ccc2c(c1)[n+]([O-])c(-c1ccc(Br)cc1)c(N)[n+]2[O-]	> 100	> 100	> 100 µM	> 100	> 100	> 100	> 100	> 100											
CCN(CC)c1ccc(N=Nc2ccc([N+](=O)[O-])cc2OC(=O)/C=C/c2ccccc2)c(OC(=O)/C=C/c2ccccc2)c1	> 58.4	> 44	> 100 µM	> 100	> 100	> 100	99.7	> 74.8	> 100										
C[N+](C)(C)CC1CCC/C1=N/O (configuration not stated)	> 100	35.3	> 100 µM	44.6	> 100	19.5	> 100	> 100	> 100										
Cc1cccc(C(C)C)c1N1C(=O)C(=O)C(c2nc3ccccc3o2)C(=O)C1=O	> 100	80.9	> 100 µM	> 100	> 100	> 100	> 100	> 100	> 100										
O=S(=O)(O)c1ccc(N=Nc2nc(C(F)(F)F)c(C(F)(F)F)[nH]2)cc1		> 100	> 100 µM	> 100	> 100	> 100	> 100	72.2	31.6										
COC(=O)C(=CNC(N)=O)C(=O)OC			> 100 µM	> 100	> 100	> 100	> 100	> 100	> 100										
NC(=O)c1c([N+](=O)[O-])cc(C(F)(F)F)cc1[N+](=O)[O-]	> 100	47.4	> 100 µM	> 100	63.3	> 100	99.8	> 100	> 100										

Compound	TGI (A498 renal) [µM]	TGI (HL-60(TB) leukemia) [µM]	TGI (IGROV1 ovarian)	TGI (K-562 leukemia) [µM]	TGI (OVCAR-3 ovarian) [µM]	TGI (SW-620 colon) [µM]	TGI (UACC-257 melanoma) [µM]	TGI (UACC-62 melanoma) [µM]	TGI (HOP-92 NSCLC) [µM]	GI50 (A498 renal) [µM]	GI50 (HOP-92 NSCLC) [µM]	GI50 (IGROV1 ovarian) [µM]	GI50 (K-562 leukemia) [µM]	GI50 (MDA-MB-231 breast) [µM]	TGI (MDA-MB-231 breast) [µM]	GI50 (OVCAR-3 ovarian) [µM]	GI50 (SW-620 colon) [µM]	GI50 (UACC-257 melanoma) [µM]	GI50 (UACC-62 melanoma) [µM]
Cc1cc(-c2ccccc2)nc(Nc2nc3ccccc3o2)n1	> 100	> 100	> 100 µM	> 100	> 100	> 100	> 100	> 100	> 100										
O=C(O)C1CC2(C1)CC(C(=O)O)C2 (configuration not stated)	> 100		> 100 µM	> 100	> 100	> 100	> 100	> 100							> 100				
CN(C)c1ccc(/C=C/c2ccc(/C=C/c3ccc(N(C)C)cc3)cc2)cc1	> 100	> 100	> 100 µM	> 100	> 100	> 100	> 100	> 100	> 100										
O=C(CC1(O)C(=O)Nc2ccc(Br)cc21)c1ccc(Cl)cc1Cl (configuration not stated)	> 100	48.3	> 100 µM	> 100	> 100	> 100	> 100	33.7											
N#CC1CCCCOCCOCCOCCOCCOCCCCCC1=O (configuration not stated)	> 100	> 100	> 100 µM	> 100	> 100	> 100	> 100	> 100											
CS(=O)(=O)NNS(=O)(=O)c1ccccc1	> 100	> 100	> 100 µM	> 100		> 100	> 100	> 100											
CC(=O)NC1C(OCc2ccccc2)OC(CO)C(O)C1OC(C)C(=O)N[C@@H](C)C(=O)N[C@H](CCC(=O)OCCNc1c2ccccc2nc2cccc([N+](=O)[O-])c12)C(N)=O (some centres not stated)	0.0199	0.0564	0.0679 µM and 0.022 µM	> 0.1	0.00427	0.00283	0.0201	0.00203	0.00616										
O=[N+]([O-])c1ccc(Cl)c(C2CC(c3cccc4ccccc34)=Nc3ccccc3S2)c1 (configuration not stated)	> 78.9	26.2	> 100 µM	> 69.6	51.2	> 66.7	> 100	59	49.8										
COC(=O)/C(=N/Nc1cccc(Cl)c1)C(C(=O)C(=O)Nc1cccc(Cl)c1C)c1nc2ccccc2nc1C (configuration not stated)	> 100	> 100	> 100 µM	> 100	> 100	> 100	> 100	> 100											
O=[N+]([O-])c1ccc(-c2noc(-c3ccc(Cl)cc3)c2C2=NCCN2)cc1		> 100	> 100 µM	> 100	> 100	> 100	> 100	> 100											
S=c1nc(COc2ccc(Cl)cc2Cl)[nH][nH]1	> 100	88.8	> 100 µM	> 100	> 100	> 100	> 100	> 100	> 100										
CN(C)C(=Nc1nc(=[N+](C)C)ss1)N(C)C	> 100	> 100	> 100 µM	> 100		> 100	> 100	> 100	> 100										
COC(=O)CCC1CCc2c(OC)ccc(OC)c2C1=O (configuration not stated)		> 100	> 100 µM	> 100	> 100	> 100	> 100	> 100											
O=C(NCCO)c1ccc([N+](=O)[O-])cc1	> 100	> 100	> 100 µM	> 100	> 100	> 100	> 100	> 100											
CCCCC(C)C(OC(=O)CC(CC(=O)O)C(=O)O)C(CC(C)CC(O)CCCCC(O)CC(O)C(C)N)OC(=O)CC(CC(=O)O)C(=O)O (configuration not stated)	> 100	> 100	> 100 µM	> 100	> 100	> 100	> 100	> 100	> 100										
CN(C)c1nnnn1-c1c(N)n(C)c(=O)n(C)c1=O	> 100	> 100	> 100 µM	> 100	> 100	> 100	> 100	> 100	> 100										
